Measured values: patent US20250000805A1, “VALBENAZINE COMPOSITIONS” (Neurocrine Biosciences, Inc., priority 2021, published 2025)

Test: Stability of dissolution standards and dissolution samples at ambient lab conditions
Assay type: physicochemical
Method: 40.5±4.0 mg of valbenazine ditosylate reference standard (equivalent to 22.22 mg of valbenazine free base) was added to a 250-mL volumetric flask. Diluent (0.1 N HCl dissolution media) was added to the flask, up to about 75% of the volume of the flask. The contents of the flask were mixed well, and sonicated if necessary, to provide a standard solution containing 0.0889 mg/mL valbenazine free base. The standard was stable for 17 days, stored at ambient lab conditions.
10.12±1.0 mg of valbenazine ditosylate reference standard (equivalent to 5.55 mg of valbenazine free base) was added to a 250-mL volumetric flask. Diluent (0.1N HCl dissolution media) was added to the flask, up to about 75% of the volume of the flask. […]
(§1) Dissolution was measured according to Table 8, above. After completion of the dissolution, the end temperature and observations for each vessel were recorded. […]
as §1
(§2) Dissolution was measured according to Table 9, above. After completion of the dissolution, the end temperature and observations for each vessel were recorded. […]
as §2

time the dissolution standard was stable (0.0222 mg/mL valbenazine free base in 0.1N HCl): 7 days
time the dissolution standard was stable (0.0889 mg/mL valbenazine free base in 0.1 N HCl): 17 days
SMILES: COc1cc2c(cc1OC)[C@H]1C[C@@H](OC(=O)[C@@H](N)C(C)C)[C@H](CC(C)C)CN1CC2.Cc1ccc(S(=O)(=O)O)cc1.Cc1ccc(S(=O)(=O)O)cc1 [L-Valine, (2R,3R,11bR)-1,3,4,6,7,11b-hexahydro-9,10-dimethoxy-3-(2-methylpropyl)-2H-benzo[a]quinolizin-2-yl ester, 4-methylbenzenesulfonate (1:2)]
